Assay results reported in PubChem BioAssay (NCI).
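Following 48 hours of exposure in 96-well plates, responses at five concentrations were used to interpolate endpoints linearly. GI50: concentration for 50% inhibition of growth. TGI is the concentration that stops growth completely.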

Legend:
Experiment in all cases: growth of human tumour cells (NCI), 48 h
[1] = system: EKVX NSCLC
[2] = system: HOP-92 NSCLC
[3] = system: HS 578T breast
[4] = system: HT29 colon
[5] = system: LOX IMVI melanoma
[6] = system: MCF7 breast
[7] = system: MDA-MB-435
[8] = system: NCI-H460 lung
[9] = system: OVCAR-8 ovarian
[10] = system: SNB-75 CNS

OC(O)(C(F)(F)F)C(F)(F)F
TGI [1]: > 100 µM | TGI [2]: > 100 µM | TGI [3]: > 100 µM | TGI [4]: > 100 µM | TGI [5]: > 100 µM | TGI [6]: > 100 µM | TGI [7]: > 100 µM | TGI [8]: > 100 µM | TGI [9]: > 100 µM | TGI [10]: > 100 µM

CSc1ccccc1P(CCP(c1ccccc1SC)c1ccccc1SC)c1ccccc1SC
TGI [1]: 97.7 µM | TGI [2]: > 100 µM | TGI [3]: > 100 µM | TGI [4]: > 100 µM | TGI [5]: > 100 µM | TGI [6]: > 100 µM | TGI [7]: > 100 µM | TGI [8]: > 80.1 µM | TGI [9]: > 100 µM | TGI [10]: > 55.6 µM

COC(=O)C1=C(C)NC2(C)OC(C)(O)C(C(C)=O)C12C(C)=O (stereo not given)
TGI [1]: > 100 µM | TGI [2]: 89.2 µM | TGI [3]: 65.1 µM | TGI [4]: > 100 µM | TGI [5]: > 100 µM | TGI [6]: > 100 µM | TGI [7]: > 100 µM | TGI [8]: > 100 µM | TGI [9]: > 100 µM | TGI [10]: > 100 µM

Cc1ccc(S(=O)(=O)N2CCN(CCO)CCN(S(=O)(=O)c3ccc(C)cc3)CCN(CCO)CC2)cc1
TGI [1]: 39.1 µM | TGI [2]: 66 µM | TGI [3]: 93.4 µM | TGI [4]: 26 µM | TGI [5]: 28.4 µM | TGI [6]: 28.2 µM | TGI [7]: 29.2 µM | TGI [8]: 28.7 µM | TGI [9]: > 100 µM | TGI [10]: 92.4 µM

COc1ccc(C(C)NNC(=O)c2ccncc2)cc1F (stereo not given)
TGI [1]: > 100 µM | TGI [2]: > 100 µM | TGI [3]: > 100 µM | TGI [4]: > 100 µM | TGI [5]: > 100 µM | TGI [6]: > 100 µM | TGI [7]: > 100 µM | TGI [8]: > 100 µM | TGI [9]: > 100 µM | TGI [10]: > 100 µM

Cc1ccc2cnc(N)c(C#Cc3cncc(C(=O)Nc4ccc(CN5CCN(C)CC5)c(C(F)(F)F)c4)c3)c2c1
GI50 [1]: 317 nM | TGI [1]: 1.01 µM | GI50 [2]: 77.1 nM | TGI [2]: 0.446 µM | GI50 [3]: 274 nM | TGI [3]: 1.39 µM | GI50 [4]: 106 nM | TGI [4]: 0.724 µM | GI50 [5]: 289 nM | TGI [5]: 0.934 µM | GI50 [6]: 105 nM | TGI [6]: 0.718 µM | GI50 [7]: 166 nM | TGI [7]: 0.805 µM | GI50 [8]: 212 nM | TGI [8]: 0.819 µM | GI50 [9]: 579 nM | TGI [9]: 1.22 µM | GI50 [10]: 716 nM | TGI [10]: 1.44 µM

c1ccc2c(c1)c1c3n2-c2cc(on2)C3CCC1 (stereo not given)
TGI [1]: > 100 µM | TGI [2]: > 100 µM | TGI [3]: > 100 µM | TGI [4]: > 100 µM | TGI [5]: > 100 µM | TGI [6]: > 100 µM | TGI [7]: > 100 µM | TGI [8]: > 100 µM | TGI [9]: > 100 µM | TGI [10]: > 100 µM

C[C@@H]1OCC(O)C([C@H]2OC(c3ccccc3)=N[C@H]2CO)O1 (stereo not given in full)
TGI [1]: > 100 µM | TGI [2]: > 100 µM | TGI [3]: > 100 µM | TGI [4]: > 100 µM | TGI [5]: > 100 µM | TGI [6]: > 100 µM | TGI [7]: > 100 µM | TGI [8]: > 100 µM | TGI [9]: > 100 µM | TGI [10]: > 100 µM

C=C1C(=O)O[C@H]2C3C(=C(C)CC[C@@H]12)C(=O)[C@@H]1OC31C (stereo not given in full)
TGI [1]: 33.2 µM | TGI [2]: 10.7 µM | TGI [3]: 9.8 µM | TGI [4]: 4.28 µM | TGI [5]: 5.79 µM | TGI [6]: 11.2 µM | TGI [7]: 7.13 µM | TGI [8]: 25.3 µM | TGI [9]: 5.42 µM | TGI [10]: 6.57 µM

COC(=O)C[C@H](CCSC)NC(=O)C[C@H](CCSC)NC(=O)C[C@H](CCSC)NC(=O)OC(C)(C)C
TGI [1]: > 100 µM | TGI [2]: 36.9 µM | TGI [3]: > 100 µM | TGI [4]: > 100 µM | TGI [5]: > 100 µM | TGI [6]: > 100 µM | TGI [7]: > 100 µM | TGI [8]: > 100 µM | TGI [9]: > 100 µM | TGI [10]: 29 µM

CC1(O)C(=O)OC2CC([C@]3(O)CCC4[C@@H]5C[C@H]6O[C@]67[C@@H](O)C=CC(=O)[C@]7(C)C5CC[C@@]43C)C1(C)C2 (stereo not given in full)
TGI [1]: > 100 µM | TGI [2]: 10.9 µM | TGI [3]: > 96.7 µM | TGI [4]: 36.5 µM | TGI [5]: 15.7 µM | TGI [6]: > 33 µM | TGI [7]: 33.2 µM | TGI [8]: > 80.5 µM | TGI [9]: > 100 µM | TGI [10]: > 94.1 µM

Cc1nn(-c2ccccn2)c2c1C(SC#N)=C(C=O)CC2
TGI [1]: 36.1 µM | TGI [2]: 34.5 µM | TGI [3]: > 100 µM | TGI [4]: 47 µM | TGI [5]: 29.1 µM | TGI [6]: 24.2 µM | TGI [7]: 37.7 µM | TGI [8]: 34.9 µM | TGI [9]: 30.8 µM | TGI [10]: 30.1 µM

Cc1nnc(CC#N)n1NC(=O)CC#N
TGI [1]: > 100 µM | TGI [2]: > 100 µM | TGI [3]: > 100 µM | TGI [4]: > 100 µM | TGI [5]: > 100 µM | TGI [6]: > 100 µM | TGI [7]: > 100 µM | TGI [8]: > 100 µM | TGI [9]: > 100 µM | TGI [10]: > 100 µM

O=c1oc2ccccc2c(O)c1Cc1cccc(Cc2c(O)c3ccccc3oc2=O)c1
TGI [1]: > 100 µM | TGI [2]: > 100 µM | TGI [3]: > 100 µM | TGI [4]: > 100 µM | TGI [5]: > 100 µM | TGI [6]: > 100 µM | TGI [7]: > 100 µM | TGI [8]: > 100 µM | TGI [9]: > 100 µM | TGI [10]: > 100 µM

COc1cc2c(cc1O)CC[C@@H]1C2CC[C@@]2(C)C1CC[C@@H]2O (stereo not given in full)
TGI [1]: 44.6 µM | TGI [2]: > 97.9 µM | TGI [3]: 7.63 µM | TGI [4]: 64.6 µM | TGI [5]: > 100 µM | TGI [6]: > 100 µM | TGI [7]: 0.927 µM | TGI [8]: > 72.7 µM | TGI [9]: 39.4 µM | TGI [10]: 22.1 µM

COC(=O)/C=C\C(C#N)(C#N)N=Cc1ccsc1
TGI [1]: 12.5 µM | TGI [2]: 3.7 µM | TGI [3]: > 68 µM | TGI [4]: 8.97 µM | TGI [5]: 5.71 µM | TGI [6]: 5.05 µM | TGI [7]: 12.5 µM | TGI [8]: 33.6 µM | TGI [9]: 13.3 µM | TGI [10]: 29.5 µM
